Measurements: patent US20130195870A1, “ERBB3 Mutations In Cancer” (Genentech, Inc., priority 2011, published 2013)
“Also recorded” adds a separate entry of the source.

B1: MEHD7945A: a dual ERBB3/EGFR antibody that blocks ligand binding (binds domain III of EGFR and ERBB3) (antibody, V domains shown)
VH: EVQLVESGGGLVQPGGSLRLSCAASGFTLSGDWIHWVRQAPGKGLEWVGEISAAGGYTDYADSVKGRFTISADTSKNTAYLQMNSLRAEDTAVYYCARESRVSFEAAMDYWGQGTLVTVSS
VL: DIQMTQSPSSLSASVGDRVTITCRASQNIATDVAWYQQKPGKAPKLLIYSASFLYSGVPSRFSGSGSGTDFTLTISSLQPEDFATYYCQQSEPEPYTFGQGTKVEIKR

What was measured:
[1] = system: BaF3 cells stably expressing ERBB3 mutants together with ERBB2; test: Survival and proliferation assay, IL-3 independent BaF3 cells; format: cell-based, mouse; details: for blocking oncogenic signaling by ERBB3 mutants: summary statement
Experimental: BaF3 cells stably expressing the wild-type and mutant ERBB3 alone or together with EGFR or ERBB2, were washed twice in PBS and plated in 3×96-well plates in replicates of eight in complete RPMI medium without IL3. As needed cells were then treated with different concentration of NRG1 and anti-NRG1 antibody or different ERBB antibodies, tyrosine kinase or PI3K small molecule inhibitors to test their effects on survival or cell proliferation, where relevant as depicted in the figures. Viable cells at 0 h and 120 h were determined using Cell Titer-Glo luminescence cell viability kit (Promega Corp., WI) and Synergy 2 (Biotek Instrument, CA) luminescence plate reader. All the cell number values were normalized against Oh values. In order to assess proliferation of MCF10A stably expressing ERBB3-WT or mutants were washed twice in PBS and 5000 cells plated in 96-well plates in replicates of eight in triplicates serum-free media and allowed to proliferate for 5 days. Cell numbers were measure at day 0 and day 5 using the luminescence cell viability kit. […] Mean and statistical significance was determined using GraphPad V software (GraphPad, CA).

[2] = system: BaF3 cells stably expressing ERBB3 mutants together with ERBB2; test: Colony formation assay (anchorage-independent growth), BaF3 cells; format: cell-based, mouse
Experimental: BaF3 cells stably expressing EGFR (2×10^5) or ERBB2 (50,000) along with ERBB3 wild-type or mutants, was mixed with 2 mls of IL3-free Methylcellulose ([…] Technologies, Canada) and plated on to 6 well plates and when indicated, cells were treated with different ERBB antibodies or tyrosine kinase or PI3K small molecule inhibitors before plating. Plates were then incubated at 37° C. for 2 weeks. For MCF10A colony formation, 20,000 MCF10A cells stably expressing ERBB3-WT or mutants alone or in combination with EGFR or ERBB2 were mixed with 0.35% agar in DMEM: F12 lacking serum, EGF, and NRG1 and plated on 0.5% base agar. Plates were then incubated at 37° C. for 3 weeks. The presence of colonies was assessed using Gel count imager (Oxford Optronix Ltd, UK). The number of colonies in each plate was quantified using Gel count software (Oxford Optronix Ltd, UK).

[3] = Q809R kinase domain ERBB3 mutant, at the tested dose
[4] = all the mutants tested except Q809R
[5] = all the ERBB3 mutants tested, co-expressed with ERBB2, no IL-3

Row | Molecule | blocking cell proliferation ([1]; ERBB3 ECD mutants) | blocking cell proliferation [1, 3] | blocking cell proliferation [1, 4] | blocking oncogenic signaling by ERBB3 mutants ([1]; in vitro and in vivo, majority/most of the ERBB3 mutants tested) | blocking oncogenic signaling by ERBB3 mutants ([1]; kinase domain mutant Q809R) | blocking colony formation ([2]; ERBB3 ECD mutants) | blocking colony formation [2, 3] | blocking colony formation [2, 4] | blocking cell proliferation [1, 5] | blocking colony formation [2, 5]
1 | CS(=O)(=O)N1CCN(Cc2cc3nc(-c4cccc5[nH]ncc45)nc(N4CCOCC4)c3s2)CC1 [GDC-0941] | very effective | only partially effective; also recorded: only modestly effective | effective | quite active | not as effective; also recorded: reduced efficacy | very effective | only partially effective; also recorded: only modestly effective | effective | – | –
2 | CS(=O)(=O)CCNCc1ccc(-c2ccc3ncnc(Nc4ccc(OCc5cccc(F)c5)c(Cl)c4)c3c2)o1 [lapatinib] | – | – | – | – | – | – | – | – | quite effective | quite effective
3 | B1 | – | – | – | – | – | – | – | – | – | effective
